Measurements taken from US12421243B2, “Pharmaceutically effective compounds inhibiting selectively the myosin 2 isoforms” (PRINTNET KERESKEDELMI ÉS SZOLGÁLTATÓ KFT., priority 2018, dated 2025).

Key:
[1] = target: recombinant Dictyostelium miozin (Dictyostelium) (Dictyostelium discoideum, UniProt P08799); assay: actomyosin steady state ATPase measurement, Dictyostelium myosin; format: biochemical; conditions: for IC50: concentration required for semi-maximal inhibition of ATPase, read-out: IC50 (μM) Dicty; for % inhibition. complete Dicty: maximum value of inhibition of ATPase activity; for inhibition at 5 µM: read-out: % inhibition at 5 μM (or 10 μM if racemate) Dicty; for inhibition at 50 µM: read-out: % inhibition at 50 μM (or 100 μM if racemate) Dicty
Chain of recombinant Dictyostelium miozin (Dictyostelium) (P08799 whole entry): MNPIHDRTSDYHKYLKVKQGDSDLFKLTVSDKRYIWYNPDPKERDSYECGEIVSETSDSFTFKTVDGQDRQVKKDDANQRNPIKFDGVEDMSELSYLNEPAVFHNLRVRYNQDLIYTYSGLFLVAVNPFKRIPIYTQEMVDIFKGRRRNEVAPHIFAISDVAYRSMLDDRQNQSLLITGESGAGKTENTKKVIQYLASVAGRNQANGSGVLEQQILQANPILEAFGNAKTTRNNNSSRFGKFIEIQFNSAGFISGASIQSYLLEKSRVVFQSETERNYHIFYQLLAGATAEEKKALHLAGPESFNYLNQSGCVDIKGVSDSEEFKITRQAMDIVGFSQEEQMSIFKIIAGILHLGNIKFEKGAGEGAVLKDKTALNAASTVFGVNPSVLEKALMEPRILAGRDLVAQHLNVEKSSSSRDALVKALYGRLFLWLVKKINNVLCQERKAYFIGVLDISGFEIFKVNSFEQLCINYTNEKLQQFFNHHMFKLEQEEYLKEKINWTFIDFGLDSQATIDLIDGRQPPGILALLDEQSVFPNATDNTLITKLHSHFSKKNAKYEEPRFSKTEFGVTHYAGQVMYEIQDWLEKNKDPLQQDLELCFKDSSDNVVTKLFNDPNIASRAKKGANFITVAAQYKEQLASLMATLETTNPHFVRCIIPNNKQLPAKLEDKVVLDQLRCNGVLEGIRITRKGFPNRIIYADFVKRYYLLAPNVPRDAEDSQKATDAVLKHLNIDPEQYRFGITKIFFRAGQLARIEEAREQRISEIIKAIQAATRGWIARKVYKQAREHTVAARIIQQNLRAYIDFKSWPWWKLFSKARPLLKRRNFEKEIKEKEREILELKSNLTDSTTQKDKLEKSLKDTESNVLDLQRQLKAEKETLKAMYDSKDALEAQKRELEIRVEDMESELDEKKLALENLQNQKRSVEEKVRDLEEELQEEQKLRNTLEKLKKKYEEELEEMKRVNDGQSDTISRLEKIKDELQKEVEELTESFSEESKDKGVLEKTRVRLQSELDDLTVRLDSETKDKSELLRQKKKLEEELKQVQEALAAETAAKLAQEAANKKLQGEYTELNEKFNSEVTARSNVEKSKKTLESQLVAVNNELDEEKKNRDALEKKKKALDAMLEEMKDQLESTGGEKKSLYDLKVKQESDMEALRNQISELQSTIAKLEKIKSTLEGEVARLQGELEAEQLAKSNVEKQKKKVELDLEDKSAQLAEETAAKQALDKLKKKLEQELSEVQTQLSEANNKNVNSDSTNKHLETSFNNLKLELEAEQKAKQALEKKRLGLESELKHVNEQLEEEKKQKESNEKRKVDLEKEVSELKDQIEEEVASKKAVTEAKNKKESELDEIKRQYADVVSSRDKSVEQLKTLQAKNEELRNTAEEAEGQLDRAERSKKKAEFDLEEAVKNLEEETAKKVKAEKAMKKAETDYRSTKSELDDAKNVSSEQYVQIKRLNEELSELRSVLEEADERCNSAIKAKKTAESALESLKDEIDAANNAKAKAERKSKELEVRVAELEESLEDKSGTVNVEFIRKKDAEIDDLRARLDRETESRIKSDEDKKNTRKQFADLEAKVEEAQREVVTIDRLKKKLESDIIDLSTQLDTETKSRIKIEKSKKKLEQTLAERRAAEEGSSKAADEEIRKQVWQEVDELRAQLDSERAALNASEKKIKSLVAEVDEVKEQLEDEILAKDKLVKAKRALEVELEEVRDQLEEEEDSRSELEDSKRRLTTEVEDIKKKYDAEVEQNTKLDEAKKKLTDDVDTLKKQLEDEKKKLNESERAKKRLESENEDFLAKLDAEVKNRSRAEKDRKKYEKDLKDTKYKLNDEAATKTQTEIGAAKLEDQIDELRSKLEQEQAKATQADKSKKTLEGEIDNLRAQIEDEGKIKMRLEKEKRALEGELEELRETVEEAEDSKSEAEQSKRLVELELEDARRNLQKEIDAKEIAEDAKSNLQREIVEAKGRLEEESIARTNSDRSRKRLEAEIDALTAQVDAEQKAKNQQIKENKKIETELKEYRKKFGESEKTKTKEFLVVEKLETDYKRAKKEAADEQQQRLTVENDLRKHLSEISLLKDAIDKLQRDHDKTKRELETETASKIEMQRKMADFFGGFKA
Source text: (§1) […]; (ii) the concentration required for semi-maximal inhibition.

[2] = target: recombinant human non-muscle myosin 2 NM2A (Homo sapiens, UniProt P35579); assay: actomyosin steady state ATPase measurement, NM2A; format: biochemical; conditions: for IC50: concentration required for semi-maximal inhibition of ATPase; for % inhibition. complete NM2A: maximum value of inhibition of ATPase activity; for inhibition at 5 µM: read-out: % inhibition at 5 μM (or 10 μM if racemate) NM2A, 5 μM (10 μM if racemate); for inhibition at 5 µM / inhibition at 50 µM: ATPase activity; for inhibition at 50 µM: read-out: % inhibition at 50 μM (or 100 μM if racemate) NM2A, 50 μM (100 μM if racemate)
Source text: as §1

[3] = target: recombinant human non-muscle myosin 2 NM2B (Homo sapiens, UniProt P35580); assay: actomyosin steady state ATPase measurement, NM2B; format: biochemical
Chain of recombinant human non-muscle myosin 2 NM2B (P35580 whole entry): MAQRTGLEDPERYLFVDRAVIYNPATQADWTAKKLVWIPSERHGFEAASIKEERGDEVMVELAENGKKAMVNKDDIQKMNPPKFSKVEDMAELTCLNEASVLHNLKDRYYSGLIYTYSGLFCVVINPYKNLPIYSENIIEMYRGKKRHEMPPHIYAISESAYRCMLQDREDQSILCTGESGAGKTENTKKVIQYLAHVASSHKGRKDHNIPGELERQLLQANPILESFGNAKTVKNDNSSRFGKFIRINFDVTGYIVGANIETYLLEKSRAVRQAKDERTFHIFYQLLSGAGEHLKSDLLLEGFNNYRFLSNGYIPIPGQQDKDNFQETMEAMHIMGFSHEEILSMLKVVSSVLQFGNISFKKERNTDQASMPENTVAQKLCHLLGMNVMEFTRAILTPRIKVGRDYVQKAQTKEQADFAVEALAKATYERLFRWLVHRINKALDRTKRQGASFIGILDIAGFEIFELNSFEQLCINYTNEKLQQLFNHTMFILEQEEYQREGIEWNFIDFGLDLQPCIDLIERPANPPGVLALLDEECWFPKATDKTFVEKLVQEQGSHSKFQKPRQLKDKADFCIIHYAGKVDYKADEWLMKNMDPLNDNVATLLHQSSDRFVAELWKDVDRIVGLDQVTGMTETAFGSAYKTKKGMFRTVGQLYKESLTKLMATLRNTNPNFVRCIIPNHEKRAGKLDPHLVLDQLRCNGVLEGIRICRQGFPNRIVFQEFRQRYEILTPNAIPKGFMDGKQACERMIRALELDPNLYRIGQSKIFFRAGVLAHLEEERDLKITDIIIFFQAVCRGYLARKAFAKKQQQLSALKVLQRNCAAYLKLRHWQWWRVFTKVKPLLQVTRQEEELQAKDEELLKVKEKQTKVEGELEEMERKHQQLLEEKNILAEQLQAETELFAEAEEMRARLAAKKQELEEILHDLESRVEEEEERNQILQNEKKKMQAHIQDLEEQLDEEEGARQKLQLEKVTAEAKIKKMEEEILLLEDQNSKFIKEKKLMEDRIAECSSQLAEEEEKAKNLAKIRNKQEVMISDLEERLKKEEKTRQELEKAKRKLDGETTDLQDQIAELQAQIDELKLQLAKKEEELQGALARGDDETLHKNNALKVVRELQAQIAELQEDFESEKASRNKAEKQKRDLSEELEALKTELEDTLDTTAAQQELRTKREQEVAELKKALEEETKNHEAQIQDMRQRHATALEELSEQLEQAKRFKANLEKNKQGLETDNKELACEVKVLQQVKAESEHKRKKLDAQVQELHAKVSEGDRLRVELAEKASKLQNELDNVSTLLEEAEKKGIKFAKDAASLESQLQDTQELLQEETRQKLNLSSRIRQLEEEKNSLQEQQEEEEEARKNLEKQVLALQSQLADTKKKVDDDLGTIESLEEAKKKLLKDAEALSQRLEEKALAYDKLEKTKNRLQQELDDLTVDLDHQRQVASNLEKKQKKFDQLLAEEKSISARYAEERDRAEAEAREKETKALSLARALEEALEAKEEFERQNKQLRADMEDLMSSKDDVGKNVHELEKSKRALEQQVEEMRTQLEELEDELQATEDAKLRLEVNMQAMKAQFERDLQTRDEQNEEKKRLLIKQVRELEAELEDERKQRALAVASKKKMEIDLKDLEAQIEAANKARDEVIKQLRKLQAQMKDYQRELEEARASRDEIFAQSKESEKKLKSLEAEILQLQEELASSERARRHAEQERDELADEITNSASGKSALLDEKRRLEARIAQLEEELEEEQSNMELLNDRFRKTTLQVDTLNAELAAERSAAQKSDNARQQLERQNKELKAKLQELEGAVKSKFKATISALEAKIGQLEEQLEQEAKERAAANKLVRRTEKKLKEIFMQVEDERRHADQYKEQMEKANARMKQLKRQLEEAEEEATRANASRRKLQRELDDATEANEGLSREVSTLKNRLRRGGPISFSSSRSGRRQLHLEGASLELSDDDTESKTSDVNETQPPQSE
Source text: as §1

[4] = target: recombinant human non-muscle myosin 2 NM2C (Homo sapiens, UniProt Q7Z406); assay: actomyosin steady state ATPase measurement, NM2C; format: biochemical; conditions: for IC50: concentration required for semi-maximal inhibition of ATPase; for % inhibition. complete NM2C: maximum value of inhibition of ATPase activity; for inhibition at 5 µM: read-out: % inhibition at 5 μM (or 10 μM if racemate) NM2C, 5 μM (10 μM if racemate); for inhibition at 5 µM / inhibition at 50 µM: ATPase activity; for inhibition at 50 µM: read-out: % inhibition at 50 μM (or 100 μM if racemate) NM2C, 50 μM (100 μM if racemate)
Source text: as §1

[5] = target: T1, isolated porcine cardiac ventricular myocardium (cardiac) (Sus scrofa, UniProt P79293); assay: actomyosin steady state ATPase measurement, cardiac myosin; format: biochemical; conditions: for IC50: concentration required for semi-maximal inhibition of ATPase; for % inhibition. complete cardiac: maximum value of inhibition of ATPase activity; for inhibition at 5 µM: read-out: % inhibition at 5 μM (or 10 μM if racemate) cardiac, 5 μM (10 μM if racemate); for inhibition at 5 µM / inhibition at 50 µM: ATPase activity; for inhibition at 50 µM: read-out: % inhibition at 50 μM (or 100 μM if racemate) cardiac, 50 μM (100 μM if racemate)
T1 construct: isolated porcine cardiac ventricular myocardium (cardiac); from tissue; host or cells: porcine cardiac ventricle
Source text: as §1

[6] = system: isolated rabbit skeletal muscle myosin (skeletal); assay: actomyosin steady state ATPase measurement, skeletal muscle myosin; format: biochemical; conditions: for % inhibition at 5 μM (or 10 μM if racemate) Skeletal: 5 μM (10 μM if racemate); for % inhibition at 5 μM (or 10 μM if racemate) Skeletal / % inhibition at 50 μM (or 100 μM if racemate) Skeletal: ATPase activity; for % inhibition at 50 μM (or 100 μM if racemate) Skeletal: 50 μM (100 μM if racemate); for IC50: concentration required for semi-maximal inhibition of ATPase; for % inhibition. complete Skeletal: maximum value of inhibition of ATPase activity
Source text: as §1

[7] = target: isolated smooth muscle myosin (UniProt P10587); format: biochemical, chamois; conditions: concentration required for semi-maximal inhibition of ATPase
Source text: (ii) the concentration required for semi-maximal inhibition.

[8] = solubility in PBS in the presence of 1% DMSO; format: physicochemical; conditions: phosphate buffered saline with 1% DMSO, aqueous buffer, kinetic from dmso stock, PBS w/o Mg, Ca
[9] = target: isolated smooth muscle myosin (UniProt P10587); format: biochemical, chamois; conditions: for % inhibition at 5 μM (or 10 μM if racemate) Smooth: 5 μM (10 μM if racemate); for % inhibition at 5 μM (or 10 μM if racemate) Smooth / % inhibition at 50 μM (or 100 μM if racemate) Smooth: ATPase activity; for % inhibition at 50 μM (or 100 μM if racemate) Smooth: 50 μM (100 μM if racemate); for % inhibition. complete Smooth: maximum value of inhibition of ATPase activity

Row | SMILES | IC50 [1] [µM] | % inhibition. complete Dicty [1] [%] | inhibition at 5 µM [1] [%] | inhibition at 50 µM [1] [%] | IC50 [2] [µM] | % inhibition. complete NM2A [2] [%] | inhibition at 5 µM [2] [%] | inhibition at 50 µM [2] [%] | IC50 [4] [µM] | % inhibition. complete NM2C [4] [%] | inhibition at 5 µM [4] [%] | inhibition at 50 µM [4] [%] | IC50 [5] [µM] | % inhibition. complete cardiac [5] [%] | inhibition at 5 µM [5] [%] | inhibition at 50 µM [5] [%] | % inhibition at 5 μM (or 10 μM if racemate) Skeletal [6] [%] | % inhibition at 50 μM (or 100 μM if racemate) Skeletal [6] [%] | IC50 [6] [µM] | % inhibition. complete Skeletal [6] [%] | other results
1 | O=C1c2ccsc2N=C2N(c3ccccc3)CCC12O (stereo not drawn) [Compound 180, 9-Hydroxy-12-phenyl-4-thia-2,12-diazatricyclo[7.3.0.0^3,7]dodeca-1,3(7),5-trien-8-one] | 13.1 | 85 | 22 | 67 | 9.8 | 48 | 15 | 44 | 9.3 | 60 | 20 | 55 | 5.1 | 89 | 42 | 81 | 87 | 96 | 0.81 | 99 | Inhibition (%) NM2A ([2]; maximum inhibition, compounds in IC50 range 5-10 μM): 48%; IC50 ([3]; concentration required for semi-maximal inhibition of ATPase): 18.7 µM; % inhibition. complete NM2B ([3]; maximum value of inhibition of ATPase activity): 60%; inhibition at 5 µM ([3]; read-out: % inhibition at 5 μM (or 10 μM if racemate) NM2B, 5 μM (10 μM if racemate), ATPase activity): 14%; inhibition at 50 µM ([3]; read-out: % inhibition at 50 μM (or 100 μM if racemate) NM2B, 50 μM (100 μM if racemate), ATPase activity): 44%; Inhibition (%) cardiac ([5]; maximum inhibition, compounds in IC50 range 3-6 μM): 89%; IC50 [7]: 14 µM; solubility [8]: 2400 µM; % inhibition at 5 μM (or 10 μM if racemate) Smooth [9]: 16%; % inhibition at 50 μM (or 100 μM if racemate) Smooth [9]: 38%; % inhibition. complete Smooth [9]: 58%
2 | COc1ccc(N2CC[C@@]3(O)C(=O)c4ccsc4N=C23)cc1 [Compound 211, (9S)-9-hydroxy-12-(4-methoxyphenyl)-4-thia-2,12-diazatricyclo[7.3.0.0^3,7]dodeca-1,3(7),5-trien-8-one] | 9.4 | 100 | 33 | 85 | 22 | 99 | 17 | 69 | 2 | 70 | 46 | 67 | 1.3 | 87 | 67 | 85 | 93 | 98 | 0.28 | 98 | IC50 [7]: 7 µM; solubility [8]: 510 µM; % inhibition at 5 μM (or 10 μM if racemate) Smooth [9]: 34%; % inhibition at 50 μM (or 100 μM if racemate) Smooth [9]: 74%; % inhibition. complete Smooth [9]: 85%
3 | N#Cc1ccc(N2CC[C@@]3(O)C(=O)c4ccsc4N=C23)cc1 [Compound 213, (9S)-4-{9-Hydroxy-8-oxo-4-thia-2,12-diazatricyclo[7.3.0.0^3,7]dodeca-1,3(7),5-trien-12-yl}benzonitrile] | 3.5 | 87 | 50 | 81 | 23 | 74 | 13 | 51 | 8 | 63 | 22 | 54 | 1.8 | 87 | 61 | 84 | 89 | 98 | 0.58 | 99 | Inhibition (%) Dicty ([1]; maximum inhibition, compounds in IC50 range 1-11 μM): 87%; IC50 [7]: 18 µM; solubility [8]: 410 µM; % inhibition at 5 μM (or 10 μM if racemate) Smooth [9]: 16%; % inhibition at 50 μM (or 100 μM if racemate) Smooth [9]: 57%; % inhibition. complete Smooth [9]: 78%
4 | CC(=O)c1ccc(N2CC[C@@]3(O)C(=O)c4ccsc4N=C23)cc1 [Compound 214, (9S)-12-(4-acetylphenyl)-9-hydroxy-4-thia-2,12-diazatricyclo[7.3.0.0^3,7]dodeca-1,3(7),5-trien-8-one] | 36 | 100 | 8 | 59 | 1 | 32 | 25 | 31 | 2.9 | 36 | 21 | 34 | 8.8 | 86 | 30 | 73 | 80 | 97 | 1.2 | 100 | Inhibition (%) NM2C ([4]; maximum inhibition, compounds in IC50 range 1-5 μM): 36%; IC50 [7]: 49 µM; solubility [8]: 820 µM; % inhibition at 5 μM (or 10 μM if racemate) Smooth [9]: 6%; % inhibition at 50 μM (or 100 μM if racemate) Smooth [9]: 52%; % inhibition. complete Smooth [9]: 100%
